{"source": "patent US20050004138A1", "about": "(Pfizer Inc, priority 2003, published 2005)", "key": {"[1]": {"tested_on": "Social Phobia", "test": "Treatment of subjects diagnosed with Social Phobia", "type": "in vivo, human", "settings": "subjects aged 18 to 55 years with Social Phobia; about 40 to about 200 mg/day"}, "[2]": {"tested_on": "Specific Phobia", "test": "Treatment of subjects diagnosed with Specific Phobia", "type": "in vivo, human", "settings": "subjects aged 18 to 55 years with Specific Phobia; about 40 to about 200 mg/day"}}}
{"smiles": "O=C1Cc2cc(CCN3CCN(c4nsc5ccccc45)CC3)c(Cl)cc2N1", "note": "[Ziprasidone, 5-(2-(4-(1,2-benzisothiazol-3-yl)piperazinyl)ethyl)chlorooxindole]", "values": [{"measurement": "tolerability / side effects", "setting": "[1]", "value": "well tolerated"}, {"measurement": "tolerability / side effects", "setting": "[2]", "value": "well tolerated"}]}
